One test deals with interferon-beta (IFN-β). Briefly: Induction of interferon-beta levels in CT26 cells in the presence of STING agonist DMXAA (FIG. 3). The note with it: CT26 mouse colon cancer cells. In kind it is cell-based.
Test [1] relates to CT26 colon cancer syngeneic model. Briefly: Inhibition of tumor growth by oral dosing, murine CT26 colon cancer syngeneic model. The class given is in vivo. The conditions noted are these: CT26 in BALB/c mice; BID 125-500 mg/kg or QD 500 mg/kg for 21 days; vs vehicle, P<0.0001 (FIG. 7B). From the text: Example H: Inhibition of Tumor Growth by Oral Dosing with a PARP7 Inhibitor
The effect of Compound 561 on tumor growth was studied in a human NCI-H1373 lung cancer xenograft and a murine CT26 colon cancer syngeneic model.
For the CT26 study, BALB/c mice were inoculated subcutaneously in the right flank with CT26 cells for tumor development. After 5 days of cell inoculation, mice with 36-79 mm^3 tumors were randomized into treatment groups with mean tumor volumes of 54 mm^3. The treatments were started from the next day post randomization (defined randomization day as day 0) and were treated with vehicle (25 or 50% Labrasol) or Compound 561 BID (2 times a day every 12 hours) at doses ranging from 125-500 mg/kg or QD (once a day) at 500 mg/kg for 21 days by oral gavage or needle subcutaneously. Tumor volumes were determined by manual calipers every 2-3 days. Mean tumor volume and SEM are plotted. BID: twice a day; PO: per oral administration; QD: once a day; SC: per subcutaneous administration. The first two doses for vehicle and Compound 561 500 mg/kg in the QD groups were delivered by subcutaneous injection. […] Statistical significance is calculated using two-way ANOVA followed by Bonferroni post-tests in which the treatment groups were compared to vehicle control (**** P<0.0001).

This is an account of results in US10550105B2 (Ribon Therapeutics Inc., priority 2018, dated 2020).

For `N#Cc1ccc(N2CCN(C(=O)c3cccc(OC[C@@H]4c5ccccc5CN4c4cn[nH]c(=O)c4C(F)(F)F)c3)CC2)nc1` (single isomer, unassigned) [Example 18 Isomer B], in the test on interferon-beta (IFN-β), the “interferon-beta (IFN-β) levels” value was “induction”.

On to `C[C@@H](COCCC(=O)N1CCN(c2ncc(C(F)(F)F)cn2)CC1)Nc1cn[nH]c(=O)c1C(F)(F)F` [Example 561, 5-[[(2S)-1-(3-oxo-3-[4-[5-(trifluoromethyl)pyrimidin-2-yl]piperazin-1-yl]propoxy)propan-2-yl]amino]-4-(trifluoromethyl)-2,3-dihydropyridazin-3-one], for which the tumor growth entry in test [1] is “significantly reduces tumor growth”.
